Tested on: Prostate-specific antigen (PSA) production in LNCaP cells
Assay: PSA Assay (inhibition of PSA production in prostate cancer cells, ELISA)
Format: cell-based, human
Details: Homo sapiens, LNCaP, 72 h, read-out: LNCAP IC50 (uM), inhibition of PSA production, LNCaP cells, R1881 1 ng/ml, three days, seven point assay
Method: PSA Assay (Inhibition Test of the Compound of the Present Invention on Prostate-Specific Antigen (PSA) Production in Various Prostate Cancer Cells).
Androgen dependent LNCaP cells were purchased from the American Type Culture Collection (ATCC, Manassas, Va.). These cells were grown in RPMI 1640 medium supplemented with 10% fetal bovine serum (FBS), 100 U/mL penicillin, 100 μg/mL streptomycin, and 0.25 μg/mL amphotericin B. The cells were maintained at 37° C. and 5% CO2. LNCaP cells between passage 20 and 35 were used for experiments. LNCaP is a hormone sensitive cell line. For the PSA assay, human prostate cancer cells LNCaP were seeded in a 96-well plate at a concentration of 5000 cells/100 μl/well. On the following day, Methyltrienolone (R1881, AR agonist) (final concentration 1 ng/ml), test compounds or bicalutamide (Casodex®, AstraZeneca) (final concentration 0.005 to 20 μM) were added. Three days after the addition, the concentration of PSA in the supernatant of the culture solution was measured by ELISA. ELISAs for human PSA in culture medium were performed using the ultra-sensitive assay procedure and reagents in the Active™ PSA assay kit (Diagnostic Systems Laboratories Inc., Webster, Tex.). Culture medium and standards (200 μl/well) were incubated in antibody-coated plates for 2 h at room temperature on a Titer plate shaker at 500-600 rpm. Wells were then washed five times. The HRP conjugate was diluted 1:20 with assay buffer, and 100 μl was added to all wells. The plates were incubated for 30 min at room temperature on the shaker and washed as before, and 100 μl TMB (3,3′,5,5′-tetramethylbenzidine, 0.4 g/l) was added. The plates were incubated for 10 min on the shaker, and the reaction was terminated with 100 μl stop solution. The plates were read using a plate reader at 450 nm with a 650 nm reference filter. PSA levels were normalized for differences in growth of LNCaP cells following various treatments as determined by the MTS assay. IC50 of PSA was calculated based on a seven point assay (concentrations of tested compound) and expressed as micromolar (uM).

## N#CCCCc1ccc(N2C(=S)N(c3ccc(C#N)c(Cl)c3F)C(=O)C23CCC3)cc1 [Example 43, 2-chloro-4-(5-(4-(3-cyanopropyl)phenyl)-8-oxo-6-thioxo-5,7-diazaspiro[3.4]octan-7-yl)-3-fluorobenzonitrile]
  IC50: 0.59 µM

## CNC(=O)CCCc1ccc(N2C(=S)N(c3ccc(C#N)c(C(F)(F)F)c3F)C(=O)C2(C)C)cc1F [Example 44, 4-{4-[3-(4-Cyano-2-fluoro-3-trifluoromethyl-phenyl)-5,5-dimethyl-4-oxo-2-thioxo-imidazolidin-1-yl]-2-fluoro-phenyl}-N-methyl-butyramide]
  IC50: 0.11 µM

## COc1cc(N2C(=O)C(C)(C)N(c3ccc(CCCc4nccs4)nc3)C2=S)ccc1C#N [Example 69, 4-(4,4-dimethyl-5-oxo-3-(6-(3-(thiazol-2-yl)propyl)pyridin-3-yl)-2-thioxoimidazolidin-1-yl)-2-methoxybenzonitrile]
  IC50: 0.68 µM

## CNC(=O)C(C)(C)CCc1ccc(N2C(=S)N(c3ccc(C#N)c(OC)c3F)C(=O)C2(C)C)cc1 [Example 23, 4-{4-[3-(4-Cyano-2-fluoro-3-methoxy-phenyl)-5,5-dimethyl-4-oxo-2-thioxo-imidazolidin-1-yl]-phenyl}-2,2,N-trimethyl-butyramide]
  IC50: 0.89 µM

## CNC(=O)CCc1ccc(N2C(=S)N(c3ccc(C#N)c(C(F)(F)F)c3F)C(=O)C2(C)C)cc1 [Example 4, 3-(4-(3-(4-cyano-2-fluoro-3-(trifluoromethyl)phenyl)-5,5-dimethyl-4-oxo-2-thioxoimidazolidin-1-yl)phenyl)-N-methylpropanamide]
  IC50: 14.4 µM

## CNC(=O)CCOc1ccc(N2C(=S)N(c3ccc(C#N)c(C(F)(F)F)c3F)C(=O)C2(C)C)cc1 [Example 15, 3-(4-(3-(4-cyano-2-fluoro-3-(trifluoromethyl)phenyl)-5,5-dimethyl-4-oxo-2-thioxoimidazolidin-1-yl)phenoxy)-N-methylpropanamide]
  IC50: 0.45 µM

## CC1(C)C(=O)N(c2ccc(C#N)c(Cl)c2F)C(=S)N1c1ccc(CCCC#N)c(F)c1 [Example 29, 2-chloro-4-(3-(4-(3-cyanopropyl)-3-fluorophenyl)-4,4-dimethyl-5-oxo-2-thioxoimidazolidin-1-yl)-3-fluorobenzonitrile]
  IC50: 0.29 µM

## CC1(C)C(=O)N(c2ccc(C#N)c(Cl)c2F)C(=S)N1c1ccc(CCCC#N)nc1 [Example 37, 2-chloro-4-(3-(6-(3-cyanopropyl)pyridin-3-yl)-4,4-dimethyl-5-oxo-2-thioxoimidazolidin-1-yl)-3-fluorobenzonitrile]
  IC50: 0.65 µM

## CC1(C)C(=O)N(c2ccc(C#N)c(C(F)(F)F)c2)C(=S)N1c1ccc(CCCC#N)nc1 [Example 38, 4-(3-(6-(3-cyanopropyl)pyridin-3-yl)-4,4-dimethyl-5-oxo-2-thioxoimidazolidin-1-yl)-2-(trifluoromethyl)benzonitrile]
  IC50: 0.52 µM

## CNC(=O)CCCc1ccc(N2C(=S)N(c3ccc(C#N)c(C(F)(F)F)c3F)C(=O)C2(C)C)cc1 [Example 5, 4-(4-(3-(4-cyano-2-fluoro-3-(trifluoromethyl)phenyl)-5,5-dimethyl-4-oxo-2-thioxoimidazolidin-1-yl)phenyl)-N-methylbutanamide]
  IC50: 0.37 µM

## COC(=O)CCCc1ccc(N2C(=S)N(c3ccc(C#N)c(C(F)(F)F)c3F)C(=O)C2(C)C)cc1 [Example 2, methyl 4-(4-(3-(4-cyano-2-fluoro-3-(trifluoromethyl)phenyl)-5,5-dimethyl-4-oxo-2-thioxoimidazolidin-1-yl)phenyl)butanoate]
  IC50: 1.45 µM

## CC1(C)C(=O)N(c2ccc(C#N)c(C(F)(F)F)c2F)C(=S)N1c1ccc(CCCC(=O)N2CCOCC2)nc1 [Example 55, 4-{4,4-Dimethyl-3-[6-(4-morpholin-4-yl-4-oxo-butyl)-pyridin-3-yl]-5-oxo-2-thioxo-imidazolidin-1-yl}-3-fluoro-2-trifluoromethyl-benzonitrile]
  IC50: 1.2 µM

## N#CCCCc1ccc(N2C(=S)N(c3ccc(C#N)c(C(F)(F)F)c3F)C(=O)C23CCC3)cc1F [Example 31, 4-(5-(4-(3-cyanopropyl)-3-fluorophenyl)-8-oxo-6-thioxo-5,7-diazaspiro[3.4]octan-7-yl)-3-fluoro-2-(trifluoromethyl)benzonitrile]
  IC50: 0.53 µM

## N#CCCCc1ccc(N2C(=S)N(c3ccc(C#N)c(Cl)c3F)C(=O)C23CCC3)cc1F [Example 33, 2-chloro-4-(5-(4-(3-cyanopropyl)-3-fluorophenyl)-8-oxo-6-thioxo-5,7-diazaspiro[3.4]octan-7-yl)-3-fluorobenzonitrile]
  IC50: 0.64 µM

## CNC(=O)CCCc1ccc(N2C(=S)N(c3cc(C(F)(F)F)c(C#N)cc3F)C(=O)C2(C)C)cc1F [Example 45, 4-(4-(3-(4-cyano-2-fluoro-5-(trifluoromethyl)phenyl)-5,5-dimethyl-4-oxo-2-thioxoimidazolidin-1-yl)-2-fluorophenyl)-N-methylbutanamide]
  IC50: 2.05 µM

## CNC(=O)COCc1ccc(N2C(=S)N(c3ccc(C#N)c(Cl)c3F)C(=O)C2(C)C)cc1 [Example 18, 2-((4-(3-(3-chloro-4-cyano-2-fluorophenyl)-5,5-dimethyl-4-oxo-2-thioxoimidazolidin-1-yl)benzyl)oxy)-N-methylacetamide]
  IC50: 0.56 µM

## CC1(C)C(=O)N(c2ccc(C#N)c(C(F)(F)F)c2F)C(=S)N1c1ccc(CCCC#N)cc1 [Example 40, 4-(3-(4-(3-cyanopropyl)phenyl)-4,4-dimethyl-5-oxo-2-thioxoimidazolidin-1-yl)-3-fluoro-2-(trifluoromethyl)benzonitrile]
  IC50: 0.3 µM

## CNC(=O)COCc1ccc(N2C(=S)N(c3ccc(C#N)c(C(F)(F)F)c3F)C(=O)C2(C)C)cc1 [Example 17, 2-((4-(3-(4-cyano-2-fluoro-3-(trifluoromethyl)phenyl)-5,5-dimethyl-4-oxo-2-thioxoimidazolidin-1-yl)benzyl)oxy)-N-methylacetamide]
  IC50: 0.53 µM

## CNC(=O)CCCc1ccc(N2C(=S)N(c3cc(C(F)(F)F)c(C#N)cc3F)C(=O)C2(C)C)cc1 [Example 6, 4-(4-(3-(4-cyano-2-fluoro-5-(trifluoromethyl)phenyl)-5,5-dimethyl-4-oxo-2-thioxoimidazolidin-1-yl)phenyl)-N-methylbutanamide]
  IC50: 4.75 µM

## CC1(C)C(=O)N(c2ccc(C#N)c(C(F)(F)F)c2F)C(=S)N1c1ccc(CCCC(=O)N2CC(O)C2)c(F)c1 [Example 47, 3-Fluoro-4-(3-{3-fluoro-4-[4-(3-hydroxy-azetidin-1-yl)-4-oxo-butyl]-phenyl}-4,4-dimethyl-5-oxo-2-thioxo-imidazolidin-1-yl)-2-trifluoromethyl-benzonitrile]
  IC50: 0.48 µM

## CN(C)C(=O)CCCc1ccc(N2C(=S)N(c3ccc(C#N)c(C(F)(F)F)c3F)C(=O)C2(C)C)cc1 [Example 12, 4-{4-[3-(4-Cyano-2-fluoro-3-trifluoromethyl-phenyl)-5,5-dimethyl-4-oxo-2-thioxo-imidazolidin-1-yl]-phenyl}-N,N-dimethyl-butyramide]
  IC50: 0.61 µM

## CC1(C)C(=O)N(c2ccc(C#N)c(C(F)(F)F)c2F)C(=S)N1c1ccc(CCCC#N)nc1 [Example 36, 4-(3-(6-(3-cyanopropyl)pyridin-3-yl)-4,4-dimethyl-5-oxo-2-thioxoimidazolidin-1-yl)-3-fluoro-2-(trifluoromethyl)benzonitrile]
  IC50: 0.35 µM

## CC1(C)C(=O)N(c2ccc(C#N)c(C(F)(F)F)c2F)C(=S)N1c1ccc(CCCC(=O)N2CCC(O)CC2)c(F)c1 [Example 51, 3-Fluoro-4-(3-{3-fluoro-4-[4-(4-hydroxy-piperidin-1-yl)-4-oxo-butyl]-phenyl}-4,4-dimethyl-5-oxo-2-thioxo-imidazolidin-1-yl)-2-trifluoromethyl-benzonitrile]
  IC50: 0.39 µM

## CNC(=O)C1(CCc2ccc(N3C(=S)N(c4ccc(C#N)c(C(F)(F)F)c4F)C(=O)C34CCC4)cc2)CCC1 [Example 35, 1-(2-{4-[7-(4-Cyano-2-fluoro-3-trifluoromethyl-phenyl)-8-oxo-6-thioxo-5,7-diaza-spiro[3.4]oct-5-yl]-phenyl}-ethyl)-cyclobutanecarboxylic acid methylamide]
  IC50: 0.44 µM

## CNC(=O)C(C)(C)CCc1ccc(N2C(=S)N(c3ccc(C#N)c(Cl)c3F)C(=O)C2(C)C)cc1 [Example 24, 4-{4-[3-(3-Chloro-4-cyano-2-fluoro-phenyl)-5,5-dimethyl-4-oxo-2-thioxo-imidazolidin-1-yl]-phenyl}-2,2,N-trimethyl-butyramide]
  IC50: 1.09 µM

## CC1(C)C(=O)N(c2ccc(C#N)c(Cl)c2F)C(=S)N1c1ccc(CCCc2ncc[nH]2)cc1 [Example 20, 2-Chloro-3-fluoro-4-(3-{4-[3-(1H-imidazol-2-yl)-propyl]-phenyl}-4,4-dimethyl-5-oxo-2-thioxo-imidazolidin-1-yl)-benzonitrile]
  IC50: 2.14 µM

— patent publication US9216957B2, “Androgen receptor antagonists and uses thereof” (SUZHOU KINTOR PHARMACEUTICALS, INC., priority 2011, dated 2015)
